Source: the NIST ThermoML archive (doi:10.1021/je200093f)
Several values for one entry are separate records, joined by “and”; a condition that tells them apart may be missing. Equal entries are not always repeated.

Tests used:
[1] = 101.33 kPa, Liquid, Vibrating tube method
[2] = excess molar enthalpy (molar enthalpy of mixing); xn = mol fraction of the nth substance listed; conditions: 298.15 K, 101 kPa, Liquid, Calvet calorimetry
[3] = xn = mol fraction of the nth substance listed; conditions: 298.15 K, 101 kPa, Liquid, Vibrating tube method

Cn1ccnc1 [1-methylimidazole]
Conditions | mass density [kg/m3]
[1], 298.15 K | 1031.14

Cn1ccnc1 [1-methylimidazole] + CO
Conditions | excess molar enthalpy, x1 = 0.005084 | excess molar enthalpy, x1 = 0.007607 [kcal/mol] | excess molar enthalpy, x1 = 0.01012 [kcal/mol] | excess molar enthalpy, x1 = 0.01261 [kcal/mol] | excess molar enthalpy, x1 = 0.0151 [kcal/mol] | mass density, x1 = 0.005084 | mass density, x1 = 0.007607 | mass density, x1 = 0.01012 | mass density, x1 = 0.01261 | mass density, x1 = 0.0151
[2] | -0.00838 kcal/mol and -0.00841 kcal/mol | -0.0126 | -0.0167 | -0.0208 | -0.0249 | – | – | – | – | –
[3] | – | – | – | – | – | 789.231 kg/m3 and 789.234 kg/m3 | 790.606 kg/m3 and 790.615 kg/m3 | 791.972 kg/m3 and 791.975 kg/m3 | 793.304 kg/m3 and 793.323 kg/m3 | 794.617 kg/m3 and 794.633 kg/m3

Cn1ccnc1 [1-methylimidazole] + O
Conditions | excess molar enthalpy, [2] [kcal/mol] | mass density, [3] [kg/m3]
x1 = 0.001133 | -0.00255 | 997.279
x1 = 0.001134 | -0.00254 | 997.281
x1 = 0.002264 | -0.00507 | 997.513
x1 = 0.002265 | -0.00505 | 997.514
x1 = 0.003392 | -0.00759 | 997.75
x1 = 0.003394 | -0.00757 | 997.75
x1 = 0.004518 | -0.0101 | 997.985
x1 = 0.00452 | -0.01 | 997.986
x1 = 0.005642 | -0.0126 | 998.222
x1 = 0.005644 | -0.0125 | 998.246
x1 = 0.006765 | -0.015 | 998.459
x1 = 0.006766 | -0.015 | 998.483

Cc1cccc(C)n1 [2,6-dimethylpyridine]
Conditions | mass density [kg/m3]
[1], 298.15 K | 918.19

Cc1cccc(C)n1 [2,6-dimethylpyridine] + CO
Conditions | excess molar enthalpy, [2] | mass density, [3]
x1 = 0.001741 | -0.00321 kcal/mol and -0.00319 kcal/mol | –
x1 = 0.003476 | -0.00637 kcal/mol and -0.00641 kcal/mol | 788.131 kg/m3 and 788.126 kg/m3
x1 = 0.005205 | -0.0096 kcal/mol | 788.964 kg/m3
x1 = 0.005206 | -0.00957 kcal/mol | 788.971 kg/m3
x1 = 0.006928 | -0.0128 kcal/mol | 789.788 kg/m3
x1 = 0.006929 | -0.0127 kcal/mol | 789.802 kg/m3
x1 = 0.008643 | -0.0159 kcal/mol | 790.602 kg/m3
x1 = 0.008647 | -0.0159 kcal/mol | 790.625 kg/m3
x1 = 0.01035 | -0.019 kcal/mol | 791.405 kg/m3
x1 = 0.01036 | -0.019 kcal/mol | 791.414 kg/m3

Cc1cccc(C)n1 [2,6-dimethylpyridine] + O
Conditions | excess molar enthalpy, [2] [kcal/mol] | mass density, [3] [kg/m3]
x1 = 0.000772 | -0.00277 | 996.946
x1 = 0.000773 | -0.00281 | 996.945
x1 = 0.001543 | -0.00565 | 996.862
x1 = 0.001544 | -0.00567 | 996.861
x1 = 0.002312 | -0.00855 | 996.792
x1 = 0.002314 | -0.0086 | 996.791
x1 = 0.00308 | -0.0115 | 996.732
x1 = 0.003083 | -0.0115 | 996.734
x1 = 0.003847 | -0.0144 | 996.685
x1 = 0.003851 | -0.0144 | 996.684
x1 = 0.004615 | -0.0173 | 996.644
x1 = 0.004618 | -0.0173 | 996.644

Cc1cccnc1 [3-methylpyridine]
Conditions | mass density [kg/m3]
[1], 298.15 K | 952.61

Cc1cccnc1 [3-methylpyridine] + CO
Conditions | excess molar enthalpy, [2] [kcal/mol] | mass density, [3]
x1 = 0.002075 | – | 787.397 kg/m3
x1 = 0.004143 | -0.00457 | 788.32 kg/m3
x1 = 0.004144 | -0.00455 | 788.293 kg/m3
x1 = 0.006201 | -0.00684 | 789.24 kg/m3
x1 = 0.006203 | -0.00681 | 789.213 kg/m3
x1 = 0.008251 | -0.00912 | 790.158 kg/m3
x1 = 0.008253 | -0.00905 | 790.117 kg/m3
x1 = 0.01029 | -0.0113 | 791.057 kg/m3 and 791.007 kg/m3
x1 = 0.01232 | -0.0135 | 791.892 kg/m3

Cc1cccnc1 [3-methylpyridine] + O
Conditions | excess molar enthalpy, [2] | mass density, [3]
x1 = 0.000922 | -0.00213 kcal/mol and -0.00212 kcal/mol | 997.03 kg/m3 and 997.031 kg/m3
x1 = 0.001842 | -0.00422 kcal/mol and -0.0042 kcal/mol | 997.017 kg/m3 and 997.018 kg/m3
x1 = 0.00276 | -0.00626 kcal/mol | 997.008 kg/m3
x1 = 0.002761 | -0.00629 kcal/mol | 997.007 kg/m3
x1 = 0.003677 | -0.00828 kcal/mol | 996.999 kg/m3
x1 = 0.003678 | -0.00833 kcal/mol | 996.998 kg/m3
x1 = 0.004592 | -0.0103 kcal/mol | 996.991 kg/m3
x1 = 0.004594 | -0.0103 kcal/mol | 996.989 kg/m3
x1 = 0.005507 | -0.0122 kcal/mol | 996.982 kg/m3
x1 = 0.005509 | -0.0122 kcal/mol | 996.98 kg/m3

Cc1ccncc1 [4-methylpyridine]
Conditions | mass density [kg/m3]
[1], 298.15 K | 949.87

Cc1ccncc1 [4-methylpyridine] + CO
Conditions | excess molar enthalpy, [2] | mass density, [3]
x1 = 0.004138 | -0.00498 kcal/mol | 788.325 kg/m3
x1 = 0.004139 | -0.00496 kcal/mol | 788.319 kg/m3
x1 = 0.006195 | -0.00746 kcal/mol and -0.00747 kcal/mol | 789.246 kg/m3 and 789.247 kg/m3
x1 = 0.008243 | -0.00988 kcal/mol | 790.15 kg/m3
x1 = 0.008244 | -0.00991 kcal/mol | 790.152 kg/m3
x1 = 0.01028 | -0.0123 kcal/mol | 791.066 kg/m3 and 791.039 kg/m3
x1 = 0.01231 | -0.0146 kcal/mol | 791.923 kg/m3
x1 = 0.01232 | -0.0146 kcal/mol | 791.924 kg/m3

Cc1ccncc1 [4-methylpyridine] + O
Conditions | excess molar enthalpy, [2] | mass density, [3]
x1 = 0.000919 | -0.00217 kcal/mol and -0.00216 kcal/mol | 997.023 kg/m3 and 997.024 kg/m3
x1 = 0.001837 | -0.00432 kcal/mol and -0.00429 kcal/mol | 997.005 kg/m3
x1 = 0.002753 | -0.0064 kcal/mol | 996.988 kg/m3
x1 = 0.002754 | -0.0064 kcal/mol | 996.988 kg/m3
x1 = 0.003667 | -0.00843 kcal/mol | 996.972 kg/m3
x1 = 0.003668 | -0.00844 kcal/mol | 996.971 kg/m3
x1 = 0.00458 | -0.0105 kcal/mol | 996.955 kg/m3 and 996.956 kg/m3
x1 = 0.005492 | -0.0124 kcal/mol | 996.939 kg/m3

CN1CCOCC1 [N-methylmorpholine]
Conditions | mass density [kg/m3]
[1], 298.15 K | 914.15

CN1CCOCC1 [N-methylmorpholine] + CO
Conditions | excess molar enthalpy, [2] | mass density, [3]
x1 = 0.001834 | – | 787.377 kg/m3 and 787.359 kg/m3
x1 = 0.003662 | -0.00519 kcal/mol | 788.239 kg/m3
x1 = 0.003663 | -0.0052 kcal/mol | 788.267 kg/m3
x1 = 0.005484 | -0.00777 kcal/mol and -0.00772 kcal/mol | 789.159 kg/m3 and 789.119 kg/m3
x1 = 0.007298 | -0.0103 kcal/mol | 790.004 kg/m3
x1 = 0.007299 | -0.0103 kcal/mol | 790.044 kg/m3
x1 = 0.009104 | -0.0128 kcal/mol | 790.862 kg/m3
x1 = 0.009108 | -0.0128 kcal/mol | 790.908 kg/m3
x1 = 0.0109 | -0.0152 kcal/mol | 791.711 kg/m3
x1 = 0.01091 | -0.0152 kcal/mol | 791.753 kg/m3

CN1CCOCC1 [N-methylmorpholine] + O
Conditions | excess molar enthalpy, [2] [kcal/mol] | mass density, [3] [kg/m3]
x1 = 0.000812 | -0.00565 | 997.058
x1 = 0.000813 | -0.00565 | 997.058
x1 = 0.001623 | -0.0113 | 997.074
x1 = 0.001624 | -0.0113 | 997.074
x1 = 0.002433 | -0.0169 | 997.095
x1 = 0.002434 | -0.0168 | 997.094
x1 = 0.003242 | -0.0224 | 997.121
x1 = 0.004048 | -0.0279 | 997.151
x1 = 0.00405 | -0.0279 | 997.153
x1 = 0.004854 | -0.0335 | 997.187
x1 = 0.004858 | -0.0334 | 997.188

CN1CCCCC1 [N-methylpiperidine]
[1]
Conditions | mass density [kg/m3]
288.15 K | 821.53
293.15 K | 817.22
298.15 K | 812.62
303.15 K | 808.16
308.15 K | 803.61

CN1CCCCC1 [N-methylpiperidine] + CO
Conditions | excess molar enthalpy, [2] | mass density, [3] [kg/m3]
x1 = 0.001664 | -0.00412 kcal/mol and -0.00411 kcal/mol | 786.815
x1 = 0.003322 | -0.00819 kcal/mol | 787.153
x1 = 0.003323 | -0.00814 kcal/mol | 787.15
x1 = 0.004975 | -0.0122 kcal/mol | 787.488
x1 = 0.004976 | -0.0122 kcal/mol | 787.486
x1 = 0.006622 | -0.0162 kcal/mol | 787.816
x1 = 0.006624 | -0.0161 kcal/mol | 787.816
x1 = 0.008264 | -0.0201 kcal/mol | 788.141
x1 = 0.008266 | -0.0201 kcal/mol | 788.139
x1 = 0.0099 | -0.024 kcal/mol | 788.458
x1 = 0.009904 | -0.0239 kcal/mol | 788.454

CN1CCCCC1 [N-methylpiperidine] + O
Conditions | excess molar enthalpy, [2] [kcal/mol] | mass density, [3] [kg/m3]
x1 = 0.000735 | -0.00509 | 996.66
x1 = 0.000736 | -0.00513 | 996.651
x1 = 0.000737 | -0.00512 | 996.658
x1 = 0.00147 | -0.0102 | 996.261
x1 = 0.001471 | -0.0103 | 996.253
x1 = 0.001473 | -0.0102 | 996.26
x1 = 0.002202 | -0.0154 | 995.866
x1 = 0.002206 | -0.0155 | 995.858
x1 = 0.002208 | -0.0154 | 995.862
x1 = 0.002934 | -0.0206 | 995.483
x1 = 0.002939 | -0.0206 | 995.482
x1 = 0.002942 | -0.0206 | 995.47
x1 = 0.003666 | -0.0258 | 995.109
x1 = 0.003671 | -0.0258 | 995.097
x1 = 0.003675 | -0.0259 | 995.081
x1 = 0.004398 | -0.0308 | 994.752
x1 = 0.004404 | -0.0309 | 994.733
x1 = 0.004409 | -0.031 | 994.716
